Assay results reported in the NIST ThermoML archive (doi:10.1021/je600562n).
Several values for one entry are separate records, joined by “and”; a condition that tells them apart may be missing. Identical values can stand only once.

Settings: Liquid; for mass density: Vibrating tube method; for viscosity: Vibrating wire viscometry

CC(C)CCCCCCCOC(=O)c1ccccc1C(=O)OCCCCCCCC(C)C
Settings	mass density	viscosity
298.15 K, 101.33 kPa	963.81 kg/m3 [middle of 7 runs]	87.2 mPa·s and 87.5 mPa·s and 87.3 mPa·s
298.15 K, 5000 kPa	962.8 kg/m3	–
298.15 K, 10000 kPa	965.6 kg/m3	107.3 mPa·s
298.15 K, 20000 kPa	970.8 kg/m3	–
298.15 K, 30000 kPa	976 kg/m3	–
298.15 K, 50000 kPa	985.5 kg/m3	–
298.15 K, 70000 kPa	995.2 kg/m3	–
303.15 K, 101.33 kPa	–	64.6 mPa·s
303.15 K, 10000 kPa	–	78.5 mPa·s
303.15 K, 20000 kPa	–	98 mPa·s
303.15 K, 30000 kPa	–	120.9 mPa·s
308.15 K, 101.33 kPa	–	48.99 mPa·s
308.15 K, 10000 kPa	–	60.3 mPa·s
308.15 K, 20000 kPa	–	73.1 mPa·s
308.15 K, 30000 kPa	–	89 mPa·s
308.15 K, 50000 kPa	–	135.4 mPa·s
313.15 K, 101.33 kPa	–	37.74 mPa·s
313.15 K, 10000 kPa	–	46.5 mPa·s
313.15 K, 20000 kPa	–	57 mPa·s
313.15 K, 30000 kPa	–	68.1 mPa·s
313.15 K, 50000 kPa	–	100.1 mPa·s
323.15 K, 101.33 kPa	945.64 kg/m3 [middle of 7 runs]	23.85 mPa·s and 23.84 mPa·s
323.15 K, 5000 kPa	945.4 kg/m3	–
323.15 K, 10000 kPa	948.5 kg/m3	29.24 mPa·s
323.15 K, 20000 kPa	954.6 kg/m3	35.63 mPa·s
323.15 K, 30000 kPa	960.4 kg/m3	42.46 mPa·s
323.15 K, 50000 kPa	970.7 kg/m3	60.4 mPa·s
323.15 K, 70000 kPa	980.1 kg/m3	80.6 mPa·s
348.15 K, 101.33 kPa	927.68 kg/m3 [middle of 7 runs]	9.71 mPa·s and 9.72 mPa·s and 9.71 mPa·s
348.15 K, 5000 kPa	927.9 kg/m3	–
348.15 K, 10000 kPa	931.3 kg/m3	11.55 mPa·s
348.15 K, 20000 kPa	938 kg/m3	13.81 mPa·s
348.15 K, 30000 kPa	944.1 kg/m3	15.93 mPa·s
348.15 K, 50000 kPa	955.3 kg/m3	21.5 mPa·s
348.15 K, 70000 kPa	965.7 kg/m3	28.86 mPa·s
363.15 K, 101.33 kPa	917.07 kg/m3 [middle of 6 runs]	6.39 mPa·s
373.15 K, 101.33 kPa	907 kg/m3	5.03 mPa·s
373.15 K, 5000 kPa	911.1 kg/m3	–
373.15 K, 10000 kPa	914.8 kg/m3	5.92 mPa·s
373.15 K, 20000 kPa	922.1 kg/m3	6.96 mPa·s
373.15 K, 30000 kPa	929 kg/m3	7.84 mPa·s
373.15 K, 50000 kPa	941 kg/m3	10.33 mPa·s
373.15 K, 70000 kPa	952.1 kg/m3	13.45 mPa·s
398.15 K, 101.33 kPa	–	3.043 mPa·s
398.15 K, 5000 kPa	893.4 kg/m3	–
398.15 K, 10000 kPa	898.8 kg/m3	3.601 mPa·s
398.15 K, 20000 kPa	906.6 kg/m3	4.12 mPa·s
398.15 K, 30000 kPa	913.5 kg/m3	4.741 mPa·s
398.15 K, 50000 kPa	926 kg/m3	5.98 mPa·s
398.15 K, 70000 kPa	938.9 kg/m3	7.64 mPa·s
423.15 K, 101.33 kPa	–	2.052 mPa·s
423.15 K, 5000 kPa	877.5 kg/m3	–
423.15 K, 10000 kPa	881.6 kg/m3	2.401 mPa·s
423.15 K, 20000 kPa	890.4 kg/m3	2.707 mPa·s
423.15 K, 30000 kPa	898.6 kg/m3	3.001 mPa·s
423.15 K, 50000 kPa	912.6 kg/m3	3.857 mPa·s
423.15 K, 70000 kPa	926.7 kg/m3	4.826 mPa·s
